The subject of one test is phospho-β-catenin. Kind of test: Western blot of phospho-β-catenin in MDA MB 231 cells. Type of test: cell-based, human. Particulars: MDA MB 231, 1 μM, 16 hrs; vehicle = 1.00. Here is the method:
Cells (1 × 10^5) were seeded in 6-well plates. After 24 h, cells were treated for indicated times with DMSO (vehicle) or FHP01 or XAV939 (Merck). After treatments, cells were washed with cold PBS and total protein extracts obtained by adding 80 µL of “RIPA Lysis buffer” (50 mM Tris-HCl pH 8.0, 150 mM NaCl, 0.5% Sodium deoxycholate, 0.1% SDS, 1% NP-40, 2 mM Orthovanadate, 2mM Sodium fluoride, 1mM Dithiothreitol and 1× protease inhibitors). After mechanicals detachment with cell scrapers, total lysates were collected in tubes, vortexed, and incubated for 15 min on ice. Tumors from mice were collected and disrupted by bead homogenization in Lysing Matrix D tubes using a FastPrep-24 5G homogenizer (MP Biomedicals, Solon, OH, USA) filled with “RIPA Lysis buffer” w:v. Next, samples were centrifuged for 10 min at 16,000× g, and supernatants were collected, representing total cell lysates.
Densitometric analysis of western blots was performed with NIH Image J (National Institutes of Health).
(In general: Immunoblotting shows a protein as a band on a membrane.)

Test [1] deals with WNT signaling (TCF/LEF transcriptional activity). Kind of test: TCF/LEF luciferase reporter assay (WNT1/WNT3A) in MDA MB 231 cells. Particulars: MDA MB 231, WNT1/WNT3A, 1 μM, 16 hrs. Type of test: cell-based, human. The protocol:
MDA MB 231 cells were seeded at 3 × 10^4 cells/well density in 12-well plates, in triplicate, and transfected with 250 ng of the M50 Super 8× TOPFlash reporter vector (Addgene Plasmid #12456) and 1 μg of expression vectors inducing the WNT pathway (Wnt1-V5, Addgene plasmid #43807, and Wnt3A-V5, Addgene plasmid #43810). Eight hours after transfection, cells were treated with FHP01, XAV939 (Merck, Kenilworth, NJ, USA) or DMSO for indicated times prior to lysis in Passive Lysis Buffer (Promega, Madison, WI, USA). Luciferase activity in cellular lysates was assessed on a Glomax 20/20 luminometer (Promega) using the Luciferase Assay System (Promega). Results were normalized for GFP expression, upon transfection with GFP coding vector (1 μg). Representative results from 3 independent experiments are shown (n = 3). Error bars represent the Standard Error of the Mean. All samples were read at least in triplicate.
(In general: Reporter assays use an easily measured gene product as a stand-in for the process of interest.)

Each structure is given as a SMILES string.

Consider `Oc1nc(-c2ccc(C(F)(F)F)cc2)nc2c1CSCC2` [XAV939, reference compound], for which, in the test on phospho-β-catenin, the “Phospho-β-catenin : ERK2” value is given as 2.64. Besides, the TCF/LEF-dependent transcription result in test [1] is “efficient attenuation”.

The values above are taken from article PMC8507746, “The FHP01 DDX3X Helicase Inhibitor Exerts Potent Anti-Tumor Activity In Vivo in Breast Cancer Pre-Clinical Models” (Cancers, 2021).
